Tested on: m-IMCD3 cells
Assay: Inhibition of PGE2-stimulated in vitro cyst formation in m-IMCD3 cells
Format: cell-based, mouse
Settings: Mus musculus, mIMCD3, 144 h, mean cyst area, 100% for (DMSO + PGE2) and 0% for DMSO control, 6 days of culture; for activity at 3 µM: read-out: % Cyst area after incubation with 3 μM test compound; for activity at 10 µM: read-out: % Cyst area after incubation with 10 μM test compound
Method in brief: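 Mean cyst area after 6 days, expressed relative to DMSO+PGE2 (100%) and DMSO alone (0%), from z-stack images. Mouse m-IMCD3 spheroids grew in collagen I/Matrigel gels and received PGE2 (100 nM final) with test compound (0.1% DMSO) starting 18–24 h post-plating, media refreshed at day 2 or 3.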

Structure (SMILES) | activity at 3 µM [%] | activity at 10 µM [%]
CC1(C)CN(C(=O)c2ccc(F)nc2)Cc2sc(N3C4CCC3CNC4)nc21 [Example 264, (2-(3,8-diazabicyclo[3.2.1]octan-8-yl)-7,7-dimethyl-6,7-dihydrothiazolo[5,4-c]pyridin-5(4H)-yl)(6-fluoropyridin-3-yl)methanone] | -1 | –
O=C(CC1CCCC1)N1Cc2sc(N3C4CCC3CNC4)nc2C2(CC2)C1 [Example 265, 1-(2′-(3,8-diazabicyclo[3.2.1]octan-8-yl)-4′H-spiro[cyclopropane-1,7′-thiazolo[5,4-c]pyridin]-5′(6′H)-yl)-2-cyclopentylethan-1-one] | -3 | –
O=C(CC1CCCC1)N1Cc2sc(N3C4CCC3CNC4)nc2C2(CCOCC2)C1 [Example 266, 1-(2′-(3,8-diazabicyclo[3.2.1]octan-8-yl)-2,3,5,6-tetrahydro-4′H-spiro[pyran-4,7′-thiazolo[5,4-c]pyridin]-5′(6′H)-yl)-2-cyclopentylethan-1-one] | – | 40
O=C(CC1CCCC1)N1Cc2sc(N3C4CCC3CNC4)nc2C(F)(F)C1 [Example 270, 1-(2-(3,8-diazabicyclo[3.2.1]octan-8-yl)-7,7-difluoro-6,7-dihydrothiazolo[5,4-c]pyridin-5(4H)-yl)-2-cyclopentylethan-1-one] | 2 | –
O=C(CC1CCCC1)N1CCc2nc(N3CCN4CCC[C@@H]4C3)sc2C1 [Example 272, (R)-2-cyclopentyl-1-(2-(hexahydropyrrolo[1,2-a]pyrazin-2(1H)-yl)-6,7-dihydrothiazolo[5,4-c]pyridin-5(4H)-yl)ethan-1-one] | 16 | –
CC(C)(C)CC(=O)N1CCc2nc(N3CCNCC3)sc2C1 [Example 274, 3,3-dimethyl-1-(2-(piperazin-1-yl)-6,7-dihydrothiazolo[5,4-c]pyridin-5(4H)-yl) butan-1-one] | 14 | –
O=C(CC1CCCC1)N1CCc2nc(N3CCNC[C@@H]3CO)sc2C1 [Example 275, (R)-2-cyclopentyl-1-(2-(2-(hydroxymethyl)piperazin-1-yl)-6,7-dihydrothiazolo[5,4-c]pyridin-5(4H)-yl)ethan-1-one] | 19 | –
O=C(CC1CCCC1)N1CCc2nc(N3CC4CCC3CN4)sc2C1 (centres unmarked) [Example 278, 1-(2-(2,5-diazabicyclo[2.2.2]octan-2-yl)-6,7-dihydrothiazolo[5,4-c]pyridin-5(4H)-yl)-2-cyclopentylethan-1-one] | 2 | –
O=C(CC1CCCC1)N1CCc2nc(N3CCNC[C@H]3CO)sc2C1 [Example 284, (S)-2-cyclopentyl-1-(2-(2-(hydroxymethyl)piperazin-1-yl)-6,7-dihydrothiazolo[5,4-c]pyridin-5(4H)-yl)ethan-1-one] | – | 19
O=S(=O)(Cc1ccc(F)cc1)N1CCc2nc(N3CCNCC3)sc2C1 [Example 287, 5-((4-fluorobenzyl)sulfonyl)-2-(piperazin-1-yl)-4,5,6,7-tetrahydrothiazolo[5,4-c]pyridine] | -3 | –
CCN1CC2CCC(C1)N2c1nc2c(s1)CN(S(=O)(=O)Cc1ccccc1)CC2 [Example 289, 5-(benzylsulfonyl)-2-(3-ethyl-3,8-diazabicyclo[3.2.1]octan-8-yl)-4,5,6,7-tetrahydrothiazolo[5,4-c]pyridine] | -7 | –
CCCN1CC2CCC(C1)N2c1nc2c(s1)CN(C(=O)CC1CCCC1)CC2 [Example 292, 2-cyclopentyl-1-(2-(3-propyl-3,8-diazabicyclo[3.2.1]octan-8-yl)-6,7-dihydrothiazolo[5,4-c]pyridin-5(4H)-yl)ethan-1-one] | 0 | –
CCN1CC2CCC(C1)N2c1nc2c(s1)CN(C(=O)N[C@@H]1CCOc3ccccc31)CC2 [Example 295, N—((R)-chroman-4-yl)-2-(3-ethyl-3,8-diazabicyclo[3.2.1]octan-8-yl)-6,7-dihydrothiazolo[5,4-c]pyridine-5(4H)-carboxamide] | -4 | –
O=C(N[C@H]1CCOc2ccccc21)N1CCc2nc(N3CCNCC3)sc2C1 [Example 296, (S)—N-(chroman-4-yl)-2-(piperazin-1-yl)-6,7-dihydrothiazolo[5,4-c]pyridine-5(4H)-carboxamide] | 33 | –
